Values after ≈ are worked out from the molar mass of the structure shown.
What was measured:
[1] = tested on: Staphylococcus aureus S13E; type: cell-based
Description: (§1) The MIC's were determined using a standard broth micro-dilution assay.

[2] = tested on: Staphylococcus aureus SA1199B; type: cell-based
Description: as §1

[3] = tested on: Entercoccus faecium 180-1; assay: broth micro-dilution MIC; type: cell-based
Description: as §1

Entercoccus faecium 276 = assay: broth micro-dilution MIC; type: cell-based
Description: as §1

[4] = tested on: Staphylococcus aureus 446; assay: broth micro-dilution MIC; type: cell-based
Description: as §1

[5] = tested on: Staphylococcus aureus 489; assay: broth micro-dilution MIC; type: cell-based
Description: as §1

[6] = tested on: Staphylococcus aureus 491; assay: broth micro-dilution MIC; type: cell-based
Description: as §1

[7] = tested on: Staphylococcus aureus SA1199A; assay: broth micro-dilution MIC; type: cell-based
Description: as §1

[8] = tested on: Staphylococcus aureus SA1199; assay: broth micro-dilution MIC; type: cell-based
Description: as §1

[9] = tested on: Staphylococcus aureus X400; assay: broth micro-dilution MIC; type: cell-based
Description: as §1

[10] = tested on: Staphylococcus aureus X778; assay: broth micro-dilution MIC; type: cell-based
Description: as §1

[11] = tested on: Streptococcus pyogenes C203; assay: broth micro-dilution MIC; type: cell-based
Description: as §1

Entercoccus faecium 180 = assay: broth micro-dilution MIC; type: cell-based; details: Entercoccus faecium 180
Description: (§2) The formula I compounds have in vitro and in vivo activity against Gram-positive pathogenic bacteria. The MIC's were determined using a standard broth micro-dilution assay.

Entercoccus faecium 2041 = assay: broth micro-dilution MIC; type: cell-based; details: Entercoccus faecium 2041
Description: as §2

[12] = tested on: Enterococcus gallinarum 245; assay: broth micro-dilution MIC; type: cell-based; details: Enterococcus gallinarum 245
Description: as §2

[13] = tested on: Haemophilus influenzae RD; assay: broth micro-dilution MIC; type: cell-based; details: Haemophilus influenzae RD
Description: as §2

[14] = tested on: Staphylococcus haemolyticus 105; assay: broth micro-dilution MIC; type: cell-based
Description: as §2

[15] = tested on: Staphylococcus haemolyticus 415; assay: broth micro-dilution MIC; type: cell-based
Description: as §2

[16] = tested on: Streptococcus pneumoniae P1; assay: broth micro-dilution MIC; type: cell-based
Description: as §2

Streptococcus pyogenes = assay: mouse protection, experimentally-induced infection; type: in vivo; details: mice infected with Streptococcus pyogenes, two doses
Streptococcus pneumoniae = assay: mouse protection, experimentally-induced infection; type: in vivo; details: mice infected with Streptococcus pneumoniae, two doses
[17] = tested on: vancomycin-resistant enterococci; assay: broth micro-dilution, mean geometric MIC; type: cell-based, Enterococcus faecium and Enterococcus faecalis; details: enterococci, 24-hour incubation
[18] = tested on: vancomycin-susceptible enterococci; assay: broth micro-dilution, mean geometric MIC; type: cell-based, Enterococcus faecium and Enterococcus faecalis; details: enterococci, 24-hour incubation
[19] = tested on: Staphylococcus aureus 447; assay: broth micro-dilution MIC; type: cell-based
Description: as §1

[20] = tested on: Staphylococcus epidermidis 270; assay: broth micro-dilution MIC; type: cell-based
Description: as §2

Stapylococcus aureus = assay: mouse protection, experimentally-induced infection; type: in vivo; details: mice infected with Stapylococcus aureus, two doses

Structure (SMILES): CNC(CC(C)C)C(=O)NC1C(=O)NC(CC(N)=O)C(=O)NC2C(=O)NC3C(=O)NC(C(=O)NC(C(=O)O)c4cc(O)cc(O)c4-c4cc3ccc4O)C(OC3CC(C)(N)C(O)C(C)O3)c3ccc(c(Cl)c3)Oc3cc2cc(c3OC2OC(CO)C(O)C(O)C2OC2CC(C)(NCc3ccc(Cc4ccccc4)c(OC)c3)C(O)C(C)O2)Oc2ccc(cc2Cl)C1O (stereo not shown) [Compound 104]
- MIC [1]: ≤ 0.06 µg/mL
- MIC [2]: 0.125 µg/mL (≈ 0.0693 µM)
- MIC [3]: ≤ 0.06 µg/mL
- MIC (Entercoccus faecium 276): ≤ 0.06 µg/mL
- MIC [4]: ≤ 0.06 µg/mL
- MIC [5]: ≤ 0.06 µg/mL
- MIC [6]: ≤ 0.06 µg/mL
- MIC [7]: ≤ 0.06 µg/mL
- MIC [8]: 2 µg/mL (≈ 1.11 µM)
- MIC [9]: ≤ 0.06 µg/mL
- MIC [10]: ≤ 0.06 µg/mL
- MIC [11]: ≤ 0.06 µg/mL
- MIC (Entercoccus faecium 180): ≤ 0.06 µg/mL
- MIC (Entercoccus faecium 2041): ≤ 0.06 µg/mL
- MIC [12]: 2 µg/mL (≈ 1.11 µM)
- MIC [13]: 32 µg/mL (≈ 17.8 µM)
- MIC [14]: 2 µg/mL (≈ 1.11 µM)
- MIC [15]: 2 µg/mL (≈ 1.11 µM)
- MIC [16]: ≤ 0.06 µg/mL
- ED50 (Streptococcus pyogenes): 0.12 mg/kg/2
- ED50 (Streptococcus pneumoniae): 0.041 mg/kg/2
- mean geometric MIC, Vancomycin Resistant Strains [17]: 1.2 µg/mL
- mean geometric MIC, Vancomycin Sensitive Strains [18]: 0.062 µg/mL

Structure (SMILES): CNC(CC(C)C)C(=O)NC1C(=O)NC(CC(N)=O)C(=O)NC2C(=O)NC3C(=O)NC(C(=O)NC(C(=O)O)c4cc(O)cc(O)c4-c4cc3ccc4O)C(OC3CC(C)(N)C(O)C(C)O3)c3ccc(c(Cl)c3)Oc3cc2cc(c3OC2OC(CO)C(O)C(O)C2OC2CC(C)(NCc3ccc(OC(F)(F)C(F)F)cc3)C(O)C(C)O2)Oc2ccc(cc2Cl)C1O (stereo not shown) [Compound 121]
- MIC [1]: ≤ 0.06 µg/mL
- MIC [2]: 0.25 µg/mL (≈ 0.139 µM)
- MIC [3]: ≤ 0.06 µg/mL
- MIC (Entercoccus faecium 276): ≤ 0.06 µg/mL
- MIC [4]: 2 µg/mL (≈ 1.11 µM)
- MIC [19]: 0.5 µg/mL (≈ 0.278 µM)
- MIC [5]: 1 µg/mL (≈ 0.556 µM)
- MIC [6]: ≤ 0.06 µg/mL
- MIC [7]: ≤ 0.06 µg/mL
- MIC [8]: 1 µg/mL (≈ 0.556 µM)
- MIC [10]: 0.5 µg/mL (≈ 0.278 µM)
- MIC [11]: ≤ 0.06 µg/mL
- MIC (Entercoccus faecium 180): ≤ 0.06 µg/mL
- MIC (Entercoccus faecium 2041): ≤ 0.06 µg/mL
- MIC [12]: 2 µg/mL (≈ 1.11 µM)
- MIC [13]: 16 µg/mL (≈ 8.9 µM)
- MIC [20]: 1 µg/mL (≈ 0.556 µM)
- MIC [14]: 2 µg/mL (≈ 1.11 µM)
- MIC [15]: 2 µg/mL (≈ 1.11 µM)
- MIC [16]: ≤ 0.06 µg/mL
- ED50 (Streptococcus pyogenes): 0.041 mg/kg/2
- ED50 (Streptococcus pneumoniae): 0.047 mg/kg/2
- mean geometric MIC, Vancomycin Resistant Strains [17]: 1.0 µg/mL
- mean geometric MIC, Vancomycin Sensitive Strains [18]: 0.063 µg/mL

Structure (SMILES): CNC(CC(C)C)C(=O)NC1C(=O)NC(CC(N)=O)C(=O)NC2C(=O)NC3C(=O)NC(C(=O)NC(C(=O)O)c4cc(O)cc(O)c4-c4cc3ccc4O)C(OC3CC(C)(N)C(O)C(C)O3)c3ccc(c(Cl)c3)Oc3cc2cc(c3OC2OC(CO)C(O)C(O)C2OC2CC(C)(NCc3cccc(OCC4CCCCC4)c3)C(O)C(C)O2)Oc2ccc(cc2Cl)C1O (stereo not shown) [Compound 123]
- MIC [1]: ≤ 0.06 µg/mL
- MIC [2]: 0.5 µg/mL (≈ 0.279 µM)
- MIC [3]: ≤ 0.06 µg/mL
- MIC (Entercoccus faecium 276): 0.25 µg/mL (≈ 0.139 µM)
- MIC [4]: 2 µg/mL (≈ 1.11 µM)
- MIC [19]: 1 µg/mL (≈ 0.557 µM)
- MIC [5]: 2 µg/mL (≈ 1.11 µM)
- MIC [6]: ≤ 0.06 µg/mL
- MIC [8]: 2 µg/mL (≈ 1.11 µM)
- MIC [9]: 1 µg/mL (≈ 0.557 µM)
- MIC [10]: 1 µg/mL (≈ 0.557 µM)
- MIC [11]: ≤ 0.06 µg/mL
- MIC (Entercoccus faecium 180): 0.25 µg/mL (≈ 0.139 µM)
- MIC (Entercoccus faecium 2041): ≤ 0.06 µg/mL
- MIC [12]: 1 µg/mL (≈ 0.557 µM)
- MIC [13]: 16 µg/mL (≈ 8.91 µM)
- MIC [20]: 1 µg/mL (≈ 0.557 µM)
- MIC [14]: 2 µg/mL (≈ 1.11 µM)
- MIC [15]: 1 µg/mL (≈ 0.557 µM)
- MIC [16]: ≤ 0.06 µg/mL
- ED50 (Streptococcus pyogenes): 0.076 mg/kg/2
- ED50 (Streptococcus pneumoniae): 0.039 mg/kg/2
- mean geometric MIC, Vancomycin Resistant Strains [17]: 1.0 µg/mL
- mean geometric MIC, Vancomycin Sensitive Strains [18]: 0.041 µg/mL

Structure (SMILES): CNC(CC(C)C)C(=O)NC1C(=O)NC(CC(N)=O)C(=O)NC2C(=O)NC3C(=O)NC(C(=O)NC(C(=O)O)c4cc(O)cc(O)c4-c4cc3ccc4O)C(OC3CC(C)(N)C(O)C(C)O3)c3ccc(c(Cl)c3)Oc3cc2cc(c3OC2OC(CO)C(O)C(O)C2OC2CC(C)(NCc3ccc(-c4ccc(Cl)cc4)cc3)C(O)C(C)O2)Oc2ccc(cc2Cl)C1O (stereo not shown) [Compound 229, 4-[4-chlorophenyl]benzyl-A82846B]
- MIC [1]: 1 µg/mL (≈ 0.558 µM)
- MIC [2]: 1 µg/mL (≈ 0.558 µM)
- MIC [3]: ≤ 0.06 µg/mL
- MIC (Entercoccus faecium 276): 0.25 µg/mL (≈ 0.139 µM)
- MIC [4]: 1 µg/mL (≈ 0.558 µM)
- MIC [19]: 2 µg/mL (≈ 1.12 µM)
- MIC [5]: 1 µg/mL (≈ 0.558 µM)
- MIC [6]: 0.5 µg/mL (≈ 0.279 µM)
- MIC [7]: ≤ 0.06 µg/mL
- MIC [8]: 1 µg/mL (≈ 0.558 µM)
- MIC [9]: 1 µg/mL (≈ 0.558 µM)
- MIC [10]: 1 µg/mL (≈ 0.558 µM)
- MIC [11]: ≤ 0.06 µg/mL
- MIC (Entercoccus faecium 180): ≤ 0.06 µg/mL
- MIC (Entercoccus faecium 2041): ≤ 0.06 µg/mL
- MIC [12]: 2 µg/mL (≈ 1.12 µM)
- MIC [13]: 2 µg/mL (≈ 1.12 µM)
- MIC [20]: 0.5 µg/mL (≈ 0.279 µM)
- MIC [14]: 1 µg/mL (≈ 0.558 µM)
- MIC [15]: 2 µg/mL (≈ 1.12 µM)
- MIC [16]: ≤ 0.06 µg/mL
- ED50 (Streptococcus pyogenes): 0.058 mg/kg/2
- ED50 (Streptococcus pneumoniae): 0.078 mg/kg/2
- mean geometric MIC, Vancomycin Resistant Strains [17]: 0.50 µg/mL
- mean geometric MIC, Vancomycin Sensitive Strains [18]: 0.024 µg/mL

Structure (SMILES): CN[C@@H](CC(C)C)C(=O)N[C@H]1C(=O)N[C@H](CC(N)=O)C(=O)N[C@H]2C(=O)N[C@H]3C(=O)N[C@@H](C(=O)NC(C(=O)O)c4cc(O)cc(O)c4-c4cc3ccc4O)[C@@H](O[C@H]3C[C@](C)(N)[C@H](O)[C@@H](C)O3)c3ccc(cc3)Oc3cc2cc(c3O[C@H]2O[C@@H](CO)[C@@H](O)[C@H](O)[C@@H]2O[C@H]2C[C@](C)(N)[C@H](O)[C@@H](C)O2)Oc2ccc(cc2)[C@@H]1O (stereo partly shown) [Compound A82846C, A82846C, reference compound]
- MIC [2]: ≤ .06 µg/mL
- MIC (Entercoccus faecium 276): 0.5 µg/mL (≈ 0.328 µM)
- MIC [4]: 0.5 µg/mL (≈ 0.328 µM)
- MIC [19]: 0.5 µg/mL (≈ 0.328 µM)
- MIC [5]: ≤ .06 µg/mL
- MIC [6]: 1 µg/mL (≈ 0.656 µM)
- MIC [10]: 0.5 µg/mL (≈ 0.328 µM)
- MIC (Entercoccus faecium 180): 16 µg/mL (≈ 10.5 µM)
- MIC (Entercoccus faecium 2041): 0.5 µg/mL (≈ 0.328 µM)
- MIC [12]: 0.5 µg/mL (≈ 0.328 µM)
- MIC [14]: 1 µg/mL (≈ 0.656 µM)
- MIC [15]: 2 µg/mL (≈ 1.31 µM)
- MIC [16]: ≤ .06 µg/mL
- ED50 (Stapylococcus aureus): 1.3 mg/kg/2
- ED50 (Streptococcus pyogenes): 1.5 mg/kg/2
- mean geometric MIC, Vancomycin Resistant Strains [17]: 353 µg/mL

— patent US5840684A, “Glycopeptide antibiotic derivatives” (Eli Lilly and Company, priority 1995, dated 1998)
